The values that follow come from patent US4335247A, “Novel nitrosourea derivatives and process for their production” (Kowa Co., Ltd., priority 1980, dated 1982).

One may read the LD50 as the dose expected to kill half of the subjects tested. A high value points to lower toxicity.

Series [1] can be described thus: Acute toxicity (median lethal dose, intraperitoneal). Particulars: mouse, in vivo, ip; intraperitoneal injection, ddy mice, Litchfield-Wilcoxon method. As for the experimental part:
The median lethal dose (LD50) of each of the test compounds was determined by the Litchfield-Wilcoxon method after the intraperitoneal injection of the compound into ddy mice.

Series [2] has as its system P388 cancer cell. Description: Anti-tumor test, P388-inoculated mice (survival effect). In kind it is in vivo. Particulars: Mus musculus, P388, ip, intraperitoneal, CDF1 mice; for response vs control in vivo at 12.5 mg/kg / responders at 12.5 mg/kg: 12.5 mg/Kg/day; for response vs control in vivo at 25 mg/kg / responders at 25 mg/kg: 25 mg/Kg/day; for response vs control in vivo at 50 mg/kg / responders at 50 mg/kg: 50 mg/Kg/day. The method, then:
Each experimental group was composed of six CDF1 mice. The mice were inoculated intraperitoneally with 10^6 P388 cancer cell, and the test compounds suspended in a gum arabic were administered intraperitoneally to the animals 24 hours and 5 days, respectively, after the inoculation. The survival effect of each of the compounds was expressed by the percentage of the survival days of the treated animals in each group relative to those of the control animals.

Where [3] appears, read: 24 hours and 5 days after inoculation, read-out: Survival Effect T/C.
Setting [4] is: of six mice, read-out: Cure (converted).
[5] abbreviates: of six mice, read-out: Tumored Survivors (converted).
The mark [6] stands for this setting: 100 mg/Kg/day, 24 hours and 5 days after inoculation, read-out: Survival Effect T/C.

Like-named read-outs stand apart in the source and are kept apart here.

With `C[C@@H](O)[C@H](NC(=O)N(CCCl)N=O)C(=O)Nc1nncs1` (relative stereo) [L], in series [1], the LD50 was found to be 65 mg/kg. In series [2] (setting [3]), the response vs control in vivo at 12.5 mg/kg is 153%, the response vs control in vivo at 25 mg/kg was 93% and the response vs control in vivo at 50 mg/kg stood at 81%. Further, the responders at 25 mg/kg in series [2] (setting [4]) is 16.7%.

On to `O=NN(CCCl)C(=O)Nc1nncs1` [A], for which the LD50 in series [1] was 78 mg/kg. In series [2] (setting [3]), the response vs control in vivo at 12.5 mg/kg was 170%, the response vs control in vivo at 25 mg/kg was 173% and the response vs control in vivo at 50 mg/kg was 172%.

As for `CC(C)[C@H](NC(=O)N(CCCl)N=O)C(=O)O` [B], in series [1], the LD50 is 72 mg/kg. In addition, in series [2] (setting [3]), the response vs control in vivo at 25 mg/kg was 230% and the response vs control in vivo at 50 mg/kg was determined as 297%. In addition, in series [2] (setting [4]), the responders at 50 mg/kg is 16.7%. Moreover, in series [2] (setting [5]), the responders at 50 mg/kg is 16.7%.

The compound `CC(C)[C@H](NC(=O)N(CCCl)N=O)C(=O)Nc1nncs1` [D] gave an LD50 in series [1] of 49 mg/kg. The response vs control in vivo at 6.25 mg/kg in series [2] (6.25 mg/Kg/day, 24 hours and 5 days after inoculation, read-out: Survival Effect T/C) was 223%. In series [2] (setting [3]), the response vs control in vivo at 12.5 mg/kg came to 281% and the response vs control in vivo at 25 mg/kg stood at 291%. Also, the responders at 25 mg/kg in series [2] (setting [4]) is 83.3%.

On to `CC(C)CC(NC(=O)N(CCCl)N=O)C(=O)Nc1nncs1` (stereo not drawn) [E], for which the LD50 in series [1] amounted to 82 mg/kg. In series [2] (setting [3]), the response vs control in vivo at 12.5 mg/kg came to 220%, the response vs control in vivo at 25 mg/kg was determined as 303% and the response vs control in vivo at 50 mg/kg was determined as 303%. Also, in series [2] (setting [4]), the responders at 25 mg/kg was 33.3% and the responders at 50 mg/kg is 83.3%. In addition, the responders at 25 mg/kg in series [2] (setting [5]) is 16.7%.

In turn, `CC(C)C[C@H](NC(=O)N(CCCl)N=O)C(=O)Nc1nncs1` [F] yielded an LD50 in series [1] of 85 mg/kg. For the same compound, in series [2] (setting [3]), the response vs control in vivo at 12.5 mg/kg stood at 292% and the response vs control in vivo at 25 mg/kg came to 303%. Moreover, in series [2] (setting [4]), the responders at 12.5 mg/kg is 16.7% and the responders at 25 mg/kg was 50%. In series [2] (setting [5]), the responders at 12.5 mg/kg was 16.7% and the responders at 25 mg/kg is 33.3%.

In series [1], `CC[C@H](C)[C@H](NC(=O)N(CCCl)N=O)C(=O)Nc1nncs1` [G] had a median lethal dose (LD50) of 78 mg/kg. For the same compound, in series [2] (setting [3]), the response vs control in vivo at 12.5 mg/kg came out at 247%, the response vs control in vivo at 25 mg/kg was determined as 297% and the response vs control in vivo at 50 mg/kg turned out to be 297%. Further, in series [2] (setting [4]), the responders at 12.5 mg/kg is 16.7%, the responders at 25 mg/kg is 16.7% and the responders at 50 mg/kg is 50%. Further, in series [2] (setting [5]), the responders at 25 mg/kg is 50% and the responders at 50 mg/kg was 33.3%.

In turn, `CSCC[C@H](NC(=O)N(CCCl)N=O)C(=O)Nc1nncs1` [H] gave a 50% lethal dose (LD50) in series [1] of 67 mg/kg. In series [2] (setting [3]), the response vs control in vivo at 12.5 mg/kg was 235%, the response vs control in vivo at 25 mg/kg stood at 294% and the response vs control in vivo at 50 mg/kg is 294%. For the same compound, in series [2] (setting [4]), the responders at 12.5 mg/kg was 16.7%, the responders at 25 mg/kg is 50% and the responders at 50 mg/kg was 83.3%. In addition, in series [2] (setting [5]), the responders at 25 mg/kg was 33.3% and the responders at 50 mg/kg was 16.7%.

For the compound `O=NN(CCCl)C(=O)N[C@@H](C(=O)Nc1nncs1)c1ccccc1` [I], the LD50 in series [1] worked out at 69 mg/kg. In series [2] (setting [3]), the response vs control in vivo at 12.5 mg/kg was 297%, the response vs control in vivo at 25 mg/kg is 297% and the response vs control in vivo at 50 mg/kg was found to be 297%. For the same compound, in series [2] (setting [4]), the responders at 12.5 mg/kg is 33.3%, the responders at 25 mg/kg is 33.3% and the responders at 50 mg/kg is 83.3%. For the same compound, in series [2] (setting [5]), the responders at 12.5 mg/kg was 16.7% and the responders at 25 mg/kg was 33.3%.

In series [1], `O=NN(CCCl)C(=O)N[C@@H](Cc1ccccc1)C(=O)Nc1nncs1` [J] registered an LD50 of 74 mg/kg. Besides, in series [2] (setting [3]), the response vs control in vivo at 12.5 mg/kg was found to be 297%, the response vs control in vivo at 25 mg/kg was found to be 297% and the response vs control in vivo at 50 mg/kg is 297%. Moreover, in series [2] (setting [4]), the responders at 12.5 mg/kg was 33.3%, the responders at 25 mg/kg was 83.3% and the responders at 50 mg/kg was 66.7%. For the same compound, in series [2] (setting [5]), the responders at 12.5 mg/kg is 16.7% and the responders at 50 mg/kg is 16.7%.

In turn, `O=NN(CCCl)C(=O)NC1(C(=O)Nc2nncs2)CCCC1` [K] displayed an LD50 in series [1] of 53 mg/kg. Further, in series [2] (setting [3]), the response vs control in vivo at 12.5 mg/kg was 175%, the response vs control in vivo at 25 mg/kg amounted to 176% and the response vs control in vivo at 50 mg/kg stood at 176%.

On to `O=NN(CCCl)C(=O)N[C@@H](Cc1c[nH]c2ccccc12)C(=O)Nc1nncs1` [M], for which the 50% lethal dose (LD50) in series [1] came out at 73 mg/kg. In addition, in series [2] (setting [3]), the response vs control in vivo at 25 mg/kg is 294% and the response vs control in vivo at 50 mg/kg was 294%. Further, in series [2] (setting [4]), the responders at 25 mg/kg is 83.3% and the responders at 50 mg/kg is 50%. In addition, in series [2] (setting [5]), the responders at 50 mg/kg is 33.3%. Besides, the response vs control in vivo at 100 mg/kg in series [2] (setting [6]) turned out to be 107%. Besides, the responders at 100 mg/kg in series [2] (100 mg/Kg/day, of six mice, read-out: Cure (converted)) is 16.7%.

In series [1], `CC(C)[C@@H](NC(=O)N(CCCl)N=O)C(=O)Nc1nncs1` [N] showed an LD50 of 68 mg/kg. In addition, in series [2] (setting [3]), the response vs control in vivo at 25 mg/kg was determined as 217% and the response vs control in vivo at 50 mg/kg was 99%. Further, in series [2] (setting [4]), the responders at 25 mg/kg is 16.7% and the responders at 50 mg/kg is 33.3%.

As to `CC(C)C[C@@H](NC(=O)N(CCCl)N=O)C(=O)Nc1nncs1` [O], the LD50 in series [1] stood at 61 mg/kg. In addition, in series [2] (setting [3]), the response vs control in vivo at 25 mg/kg was 190% and the response vs control in vivo at 50 mg/kg stood at 217%. Further, the response vs control in vivo at 100 mg/kg in series [2] (setting [6]) amounted to 188%.
